Test results: PMC5364125 (EJNMMI Research, 2017)
“And” between values parts separate entries of the source, which are not always exact repeats. Equal values may be shown once. Read-outs that look alike come from different tables or passages of the source.

Assays:
[1] = design: method as in PMID 25616581; details: cited from earlier work
TSPO [2] = details: cited from earlier work
[3] = design: method as in PMID 27329083; details: rats; cited from earlier work
[4] = design: method as in PMID 27329083; details: cited from earlier work
TSPO [5] = system: TSPO; design: method as in PMID 25616581; details: 6-hydroxydopamine-injured striatum; cited from earlier work
[6] = estimated from murine distribution data; cited from earlier work
[7] = From the text: The protocol for investigating radiation dosimetry in human subjects using whole-body imaging was essentially the same as that reported previously.
Whole-body PET/CT scans were obtained using a Discovery 710 PET/CT scanner (GE Healthcare) in 3D mode. LD-CT was used for attenuation correction of the PET emission scan. […] Then, 128-min scans (18 frames, 13 bed positions per frame, overlap of 23 of 47 slices per bed, 15 s/bed × four frames, 30 s/bed × 12 frames, and 60 s/bed × two frames) from the top of the head to mid-thigh were performed. Images were reconstructed using a 3D-ordered subset expectation maximization algorithm (subset, 24; iteration, 2) with a 6.4-mm Gaussian filter.
ROIs were manually placed over […] that could be identified on PET or LD-CT: adrenals, brain, gallbladder, small intestine, stomach, heart wall, kidneys, liver, lungs, pancreas, bone marrow (thoracic and lumbar vertebrae), spleen, testes, thymus, thyroid, and urinary bladder. The decay-uncorrected and decay-corrected TACs of organs were calculated as the percent injected dose (%ID) per milliliter and the %ID per organ. The volume of bone marrow, in which only part of the organ could be measured, was substituted by the volume that was calculated from the mass of red marrow in the adult male phantom (1.12 kg for 73.7 kg of body weight) adjusted by the subject’s body weight and 1.04 g/mL as the specific gravity. The normalized number of disintegrations (MBq-h/MBq administered) for each source organ is equal to the area under the time course of decay-uncorrected curve (%ID/mL) multiplied by the volume of the organ ROI. The area under the time course curve was calculated by summing the area from time zero to the endpoint of the scan and the area from the endpoint of the scan to infinity. The former area was calculated by trapezoidal integration. The latter area was calculated by integration of radioactive decay from the endpoint.
The absorbed doses in 25 target organs of the adult male phantom were estimated from the normalized number of disintegrations of source organs by implementing the Medical Internal Radiation Dose method using OLINDA/EXM (Vanderbilt University). The effective dose was also calculated by OLINDA/EXM using the methodology described in International Commission on Radiological Protection Publication 60 [40].

TSPO [8] = assay: Dynamic brain PET, V T by two-tissue compartment model; format: in vivo, human
Experimental: (§1) PET scanning was performed using a Discovery PET/computed tomography (CT) 710 scanner (GE Healthcare, Milwaukee, WI) in 3D mode. This scanner has an axial field of view of 15.7 cm, a spatial resolution of 4.5 mm full width at half maximum (FWHM), and a Z-axis resolution of 4.8 mm FWHM. We acquired 47 slices. […] Arterial blood (0.5 mL each) was sampled at 10, 20, 30, 40, 50, 60, 70, 80, 90, 100, 110, 120, 135, 150, and 180 s, as well as at 5, 7, 10, 15, 20, 30, 40, 50, 60, 75, and 90 min. The whole blood and separated plasma were weighed, and radioactivity was measured with a NaI (Tl) well scintillation counter (BeWell Model-QS03 F/B; Molecular Imaging Labo, Suita, Japan). To analyze the labeled metabolites, 1.5 mL additional blood was obtained at 3, 10, 20, 30, 40, and 60 min. After the PET scan, urine was obtained from each subject, and radioactivity was measured.
The dynamic images were post-smoothed with a 4-mm FWHM Gaussian filter. The data were reconstructed in 128 × 128 × 47 voxels, and the voxel size was 2 × 2 × 3.27 mm. Partially overlapping circular regions of interests (ROIs) that were 10 mm in diameter were placed on the frontal, temporal, parietal, occipital, and cerebellar cortices, thalamus, putamen, and head of the caudate nucleus with reference to the co-registered MRI. TACs for these ROIs were calculated as becquerel per milliliter or as standardized uptake value (SUV): (activity/ml tissue)/(injected activity/g body weight). […] The goodness of fit by the two-model analysis was evaluated using AIC.

[9] = HPLC metabolite analysis of plasma and urine; format: in vivo, human
Experimental: as §1

TSPO [10] = system: TSPO; design: method as in PMID 25771904; details: herpes encephalitis rat model; cited from earlier work
[11] = two-tissue compartment model, typical subjects n = 4

## CC[C@@H](C)N(C)C(=O)c1cc2ccccc2c(-c2ccccc2Cl)n1 [(R)-PK11195, reference compound]
[1]
  logP: 2.54

## CCCN(CCC)C(=O)Cc1c(-c2ccc(OC)cc2)nc2c(Cl)cc(Cl)cn12 [CB184]
[1]
  logP: 2.06
TSPO [2]
  relative TSPO binding affinity to (R)-PK11195: 7.9 fold
TSPO [2]; read-out: K i, affinity for TSPO
  Ki: 0.54 nM
[3]
  abnormalities in the acute toxicity test: absence of any abnormalities
[4]
  mutagenicity: absence of mutagenicity

## CCN(CC)C(=O)Cc1c(-c2ccc(OC)cc2)nn2c(C)cc(C)nc12 [DPA-713]
TSPO [2]
  relative TSPO binding affinity to (R)-PK11195: 2 fold

## CCCN(CCC)C(=O)Cc1c(-c2ccc(O[11CH3])cc2)nc2c(Cl)cc(Cl)cn12 [[^11C]CB184, N,N-di-n-propyl-2-[2-(4-[^11C]methoxyphenyl)-6,8-dichloroimidazol[1,2-a]pyridine-3-yl]acetamide]
TSPO [5]
  regional uptake into inflamed areas compared with (R)-[^11C]PK11195: comparable
[6]
  organ with highest radiation-absorbed dose: highest in the lung
[7]; at 132 ± 0 min, n = 3
  radioactivity voided into urine, of the injected activity: 0.3% ± 0
[7]; at 3.3 min, one subject
  lungs radioactivity, initial time point: 25 %ID
[7]; first frame
  lungs uptake: 25 % injected activity
[7]; healthy male subjects n = 3
  Absorbed dose, Adrenals: 4.6 ± 0.9 μGy/MBq
  Absorbed dose, Brain: 4.0 ± 0.3 μGy/MBq
  Absorbed dose, Breasts: 2.2 ± 0.0 μGy/MBq
  Absorbed dose, Gallbladder wall: 5.4 ± 0.4 μGy/MBq
  Absorbed dose, Heart wall: 12.8 ± 0.5 μGy/MBq
  Absorbed dose, Kidneys: 21.0 ± 0.5 μGy/MBq
  Absorbed dose, Liver: 8.3 ± 0.9 μGy/MBq
  Absorbed dose, Lower large intestine wall: 2.3 ± 0.1 μGy/MBq
  Absorbed dose, Lungs: 16.8 ± 2.7 μGy/MBq
  Absorbed dose, Muscle: 2.2 ± 0.1 μGy/MBq
  Absorbed dose, Osteogenic cells: 3.6 ± 0.1 μGy/MBq
  Absorbed dose, Ovaries: 2.5 ± 0.1 μGy/MBq
  Absorbed dose, Pancreas: 16.5 ± 2.2 μGy/MBq
  Absorbed dose, Red marrow: 3.2 ± 0.1 μGy/MBq
  Absorbed dose, Skin: 1.7 ± 0.1 μGy/MBq
  Absorbed dose, Small intestine: 5.4 ± 0.9 μGy/MBq
  Absorbed dose, Spleen: 16.6 ± 6.6 μGy/MBq
  Absorbed dose, Stomach wall: 4.5 ± 0.9 μGy/MBq
  Absorbed dose, Testes: 3.6 ± 0.7 μGy/MBq
  Absorbed dose, Thymus: 2.1 ± 0.0 μGy/MBq
  Absorbed dose, Thyroid: 12.0 ± 3.9 μGy/MBq
  Absorbed dose, Total body: 2.8 ± 0.0 μGy/MBq
  Absorbed dose, Upper large intestine wall: 2.8 ± 0.1 μGy/MBq
  Absorbed dose, Urinary bladder wall: 2.1 ± 0.1 μGy/MBq
  Absorbed dose, Uterus: 2.5 ± 0.1 μGy/MBq
  Effective dose: 5.9 ± 0.6 μSv/MBq
[7]; last frame
  lungs uptake: 4.2 % injected activity
[7]; mean ± SD, n = 3
  Normalized number of disintegrations, Adrenals: 1.3E-04 ± 5.7E-05 (9.5E-05 – 2.0E-04) MBq-h/MBq administered
  Normalized number of disintegrations, Brain: 1.6E-02 ± 1.3E-03 (1.5E-02 – 1.7E-02) MBq-h/MBq administered
  Normalized number of disintegrations, Gallbladder contents: 8.6E-04 ± 2.3E-04 (7.1E-04 – 1.1E-03) MBq-h/MBq administered
  Normalized number of disintegrations, Heart wall: 1.3E-02 ± 6.2E-04 (1.3E-02 – 1.4E-02) MBq-h/MBq administered
  Normalized number of disintegrations, Kidneys: 2.2E-02 ± 4.7E-04 (2.2E-02 – 2.2E-02) MBq-h/MBq administered
  Normalized number of disintegrations, Liver: 4.2E-02 ± 5.4E-03 (3.8E-02 – 4.8E-02) MBq-h/MBq administered
  Normalized number of disintegrations, Lungs: 6.2E-02 ± 1.1E-02 (5.1E-02 – 7.2E-02) MBq-h/MBq administered
  Normalized number of disintegrations, Pancreas: 5.2E-03 ± 7.6E-04 (4.5E-03 – 6.0E-03) MBq-h/MBq administered
  Normalized number of disintegrations, Red marrow: 1.0E-02 ± 1.7E-03 (8.8E-03 – 1.2E-02) MBq-h/MBq administered
  Normalized number of disintegrations, Remainder: 2.9E-01 ± 2.0E-02 (2.8E-01 – 3.2E-01) MBq-h/MBq administered
  Normalized number of disintegrations, Small intestine: 1.0E-02 ± 2.9E-03 (6.9E-03 – 1.3E-02) MBq-h/MBq administered
  Normalized number of disintegrations, Spleen: 1.0E-02 ± 4.5E-03 (4.9E-03 – 1.3E-02) MBq-h/MBq administered
  Normalized number of disintegrations, Stomach: 3.2E-03 ± 1.7E-03 (2.1E-03 – 5.2E-03) MBq-h/MBq administered
  Normalized number of disintegrations, Testes: 4.3E-04 ± 1.1E-04 (3.1E-04 – 5.0E-04) MBq-h/MBq administered
  Normalized number of disintegrations, Thymus: 3.8E-05 ± 1.8E-06 (3.7E-05 – 4.1E-05) MBq-h/MBq administered
  Normalized number of disintegrations, Thyroid: 9.4E-04 ± 3.4E-04 (6.3E-04 – 1.3E-03) MBq-h/MBq administered
  Normalized number of disintegrations, Urinary bladder contents: 9.8E-05 ± 3.7E-05 (5.5E-05 – 1.2E-04) MBq-h/MBq administered
[7]; whole-body PET
  time of peak radioactivity in liver: 20 min
TSPO [8]; after intravenous injection, typical subjects n = 4
  time of peak radioactivity in all gray matter regions: about 5 min
TSPO [8]; comparison with ref 15 values
  V T values relative to those of (R)-[^11C]PK11195: 10 times
TSPO [8]; [11]
  V T caudate: 3.2 ± 0.1 mL/cm^3
  V T cerebellum: 4.4 ± 0.2 mL/cm^3
  V T frontal cortex: 4.0 ± 0.2 mL/cm^3
  V T occipital cortex: 4.3 ± 0.2 mL/cm^3 and 4.3 ± 0.5 mL/cm^3
  V T parietal cortex: 3.9 ± 0.3 mL/cm^3
  V T putamen: 4.0 ± 0.2 mL/cm^3
  V T temporal cortex: 3.9 ± 0.4 mL/cm^3
  V T thalamus: 5.1 ± 0.4 mL/cm^3
[9]; 3 min after intravenous injection of [^11C]CB184, n = 5
  Percentage of radioactivity in plasma: 96.1 ± 2.7%
[9]; 10 min after intravenous injection of [^11C]CB184, n = 5
  Percentage of radioactivity in plasma: 83.8 ± 8.9%
[9]; 20 min after intravenous injection of [^11C]CB184, n = 5
  Percentage of radioactivity in plasma: 61.6 ± 8.0%
[9]; 30 min after intravenous injection of [^11C]CB184, n = 5
  Percentage of radioactivity in plasma: 52.9 ± 4.9%
[9]; 40 min after intravenous injection of [^11C]CB184, n = 5
  Percentage of radioactivity in plasma: 47.0 ± 5.0%
[9]; HPLC of voided urine
  parent radioligand in voided urine: not detected
[9]; HPLC of voided urine, n = 3
  broad hydrophilic metabolites in urine: 99.4% ± 0.6
[9]; approximately 100 min post-injection
  total injected radioactivity recovered in urine: 0.3%
[9]; at 111 ± 17 min, n = 8
  radioactivity voided into urine, of the injected activity: 0.3% ± 0.0
TSPO [10]
  regional uptake into inflamed areas compared with (R)-[^11C]PK11195: higher
